Consider ten molecules from ChEMBL document CHEMBL4627248, “Emerging small-molecule therapeutic approaches for amyotrophic lateral sclerosis and frontotemporal dementia” (Bioorg Med Chem Lett, 2020).

In the first experiment the target is T1, TAR DNA-binding protein 43 (Homo sapiens, UniProt Q13148). Nature of the experiment: Inhibition of TDP-43 (unknown origin) binding to RNA.
T1 sequence (Q13148 whole entry): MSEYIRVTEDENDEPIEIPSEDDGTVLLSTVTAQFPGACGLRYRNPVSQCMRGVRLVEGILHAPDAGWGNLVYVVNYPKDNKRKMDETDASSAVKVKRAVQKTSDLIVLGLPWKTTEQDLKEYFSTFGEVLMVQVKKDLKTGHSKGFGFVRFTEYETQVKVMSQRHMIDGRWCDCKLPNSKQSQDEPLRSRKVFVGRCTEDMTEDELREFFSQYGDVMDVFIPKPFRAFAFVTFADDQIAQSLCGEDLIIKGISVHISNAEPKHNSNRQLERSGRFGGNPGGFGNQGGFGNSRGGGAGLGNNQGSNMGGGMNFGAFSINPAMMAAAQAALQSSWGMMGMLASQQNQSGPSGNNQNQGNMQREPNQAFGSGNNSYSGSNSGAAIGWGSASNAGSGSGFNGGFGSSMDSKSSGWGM
Usually IC50 stands for the concentration that gives 50% inhibition. A higher IC50 goes with lower potency. `NC(=O)CCCCC1CCSS1` (racemic) [THIOCTIC ACID AMIDE] showed an IC50 of 20 µM.

`O=C(O)CCCC[C@@H]1CCSS1` [THIOCTIC ACID] had an IC50 of 20 µM.

Consider `COc1cc(NC(=O)CCC2CCCN(Cc3ccc(F)c(OC)c3)C2)cc(OC)c1` (stereo not given), for which the IC50 is 0.1 µM.

For the molecule `O=C1c2c(O)ccc(O)c2C(=O)c2c(NCCNCCO)ccc(NCCNCCO)c21` [MITOXANTRONE], the IC50 was 10 µM.

In turn, `CCc1cccc(C)c1NS(=O)(=O)c1cnccc1C(=O)N1CCCC1` gave an IC50 of over 0.1 µM.

The next experiment has as its target T1, TAR DNA-binding protein 43. Nature of the experiment: Binding affinity to TDP-43 (unknown origin).
One may read the Kd as the free concentration of one partner at which half of the binding sites on the other are occupied at equilibrium, for simple one-to-one binding. High values mean a looser complex, low ones a tighter complex. On to `NC(=O)c1cncc(N2CCCC(CO)(Cc3ccc(F)cc3)C2)n1` (stereo not given), for which binding was put at a Kd of 89 µM.

The next experiment concerns the target (G4C2)8 hairpin RNA. Briefly: Binding affinity to (G4C2)8 hairpin RNA (unknown origin) by TO-PRO-1 dye displacement assay.
For `CCN(CC)CCNC(=O)c1cc2cc(NC(=O)c3cc4cc(N)ccc4[nH]3)ccc2[nH]1`, the equilibrium dissociation constant (Kd) was found to be 16 µM.

The molecule `CCN(CC)CC[n+]1ccc2c(C)c3[nH]c4ccc(O)cc4c3c(C)c2c1` returned a Kd of 1.4 µM.

Take `N=C(N)c1ccc(Nc2ccc(-c3cc4ccc(C(=N)N)cc4[nH]3)cc2)cc1`: the dissociation constant (Kd) came to 10 µM.

`Cc1c2cc[n+](C)cc2c(C)c2c1[nH]c1ccc(O)cc12` registered a Kd of 0.9 µM.
